According to ChEMBL document CHEMBL3046114, “Synthesis and phytotoxic activity of novel acylthiourea and 2H-1,2,4-thiadiazolo[2,3-]pyrimidine derivatives” (2012):

Tests used:
Format in all cases: functional
Conditions in all cases: read-out: GI
[1] = tested on: Chenopodium ficifolium; experiment: Phytotoxicity against Chenopodium ficifolium germinated seed assessed as growth inhibition at 10 mg/L after 72 hr by culture dish method
[2] = tested on: Digitaria ciliaris; experiment: Phytotoxicity against Digitaria ciliaris germinated seed assessed as growth inhibition at 100 mg/L after 72 hr by culture dish method
[3] = tested on: Echinochloa crus-galli; experiment: Phytotoxicity against Echinochloa crus-galli (barnyard grass) germinated seed assessed as growth inhibition at 10 mg/L after 72 hr by culture dish method
[4] = tested on: Chenopodium ficifolium; experiment: Phytotoxicity against Chenopodium ficifolium germinated seed assessed as growth inhibition at 100 mg/L after 72 hr by culture dish method
[5] = tested on: Brassica napus; experiment: Phytotoxicity against Brassica napus (oilseed rape) germinated seed assessed as growth inhibition at 10 mg/L after 72 hr by culture dish method
[6] = tested on: Digitaria ciliaris; experiment: Phytotoxicity against Digitaria ciliaris germinated seed assessed as growth inhibition at 10 mg/L after 72 hr by culture dish method
[7] = tested on: Echinochloa crus-galli; experiment: Phytotoxicity against Echinochloa crus-galli (barnyard grass) germinated seed assessed as growth inhibition at 100 mg/L after 72 hr by culture dish method
[8] = tested on: Brassica napus; experiment: Phytotoxicity against Brassica napus (oilseed rape) germinated seed assessed as growth inhibition at 100 mg/L after 72 hr by culture dish method

Compound | inhibition of growth at 10 µg/mL [1] | inhibition of growth at 100 µg/mL [2] | inhibition of growth at 10 µg/mL [3] | inhibition of growth at 100 µg/mL [4] | inhibition of growth at 10 µg/mL [5] | inhibition of growth at 10 µg/mL [6] | inhibition of growth at 100 µg/mL [7] | inhibition of growth at 100 µg/mL [8]
Cc1cc(O)nc(NC(=S)NC(=O)c2c(-c3ccc(Cl)cc3Cl)noc2C)n1 | -5.86% | 49.3% | -9.78% | 46.7% | 6.7% | -6.24% | 46.8% | 52.3%
CSc1cc(C)nc(NC(=S)NC(=O)c2c(-c3ccc(Cl)cc3Cl)noc2C)n1 | 32.8% | 45.5% | 27.4% | 86.1% | 42.4% | 26.7% | 47.1% | 73.6%
COc1cc(SC)nc(NC(=S)NC(=O)c2c(-c3ccc(Cl)cc3Cl)noc2C)n1 | -8.31% | 55.6% | 19.3% | 60.3% | 18.7% | 34.8% | 40.9% | 69.2%
Cc1cc(C)nc(NC(=S)NC(=O)c2c(-c3ccc(Cl)cc3Cl)noc2C)n1 | 16.9% | 61.4% | 18.5% | 65.4% | 16.1% | 26.5% | 64.7% | 68%
COc1cc(Cl)nc(NC(=S)NC(=O)c2c(-c3ccc(Cl)cc3Cl)noc2C)n1 | 21.9% | 62.2% | 18.5% | 53.2% | 30.7% | 14.6% | 56.3% | 61%
COc1cc(C)nc2n/c(=N/C(=O)c3c(-c4ccc(Cl)cc4Cl)noc3C)sn12 | 45.7% | 80.6% | 30.9% | 80.4% | 26.4% | 50.3% | 80.5% | 80.6%
Cc1cc(C)n2s/c(=N\C(=O)c3c(-c4ccc(Cl)cc4Cl)noc3C)nc2n1 | 26.7% | 84.9% | 25.2% | 76.9% | 46.3% | 15.2% | 76% | 76.8%
Cc1cc(O)n2s/c(=N\C(=O)c3c(-c4ccc(Cl)cc4Cl)noc3C)nc2n1 | 32.9% | 72.1% | 30.5% | 59.3% | 38.5% | 30.1% | 65.8% | 79.2%
COc1cc(Cl)nc2n/c(=N/C(=O)c3c(-c4ccc(Cl)cc4Cl)noc3C)sn12 | 19.3% | 72.8% | 10.8% | 65.9% | 28.6% | 16.5% | 40.8% | 70.8%
COc1cc(OC)nc(NC(=S)NC(=O)c2c(-c3ccc(Cl)cc3Cl)noc2C)n1 | 30.7% | 65.9% | 21.8% | 78.6% | 35.2% | 32% | 60.9% | 70.8%
COc1cc(C)nc(NC(=S)NC(=O)c2c(-c3ccc(Cl)cc3Cl)noc2C)n1 | 15.3% | 60.2% | 12.3% | 59.8% | 15.7% | 30.2% | 61.8% | 69.3%
CSc1cc(C)nc2n/c(=N/C(=O)c3c(-c4ccc(Cl)cc4Cl)noc3C)sn12 | 21.9% | 70.6% | 37.5% | 75.2% | 32.8% | 26.8% | 75.4% | 62.8%
Cc1onc(-c2ccc(Cl)cc2Cl)c1C(=O)/N=c1/nc2nc(Cl)cc(C)n2s1 | 18.6% | 68.1% | 25.8% | 73.6% | 20.1% | 32.8% | 55.6% | 70.2%
Cc1cc(Cl)nc(NC(=S)NC(=O)c2c(-c3ccc(Cl)cc3Cl)noc2C)n1 | 28.9% | 44.2% | -6.84% | 48.3% | 8.36% | 10.2% | 48.7% | 50.8%
COc1cc(OC)n2s/c(=N\C(=O)c3c(-c4ccc(Cl)cc4Cl)noc3C)nc2n1 | 28.9% | 85.3% | 43.2% | 82.7% | 49.3% | 53.8% | 85.6% | 85.6%
CCOC(=O)[C@@H](C)Oc1ccc(Oc2nc3ccc(Cl)cc3o2)cc1 [FENOXAPROP-P-ETHYL] | 16.8% | 85.6% | 58.4% | 48.7% | 16.4% | 35.7% | 71.8% | 42.2%
COc1cc(SC)nc2n/c(=N/C(=O)c3c(-c4ccc(Cl)cc4Cl)noc3C)sn12 | 23.8% | 79.6% | 21.4% | 68.3% | 27.4% | 19.8% | 55.6% | 75.8%
